In US9346793B2, “Hydroxylated aminotriazole derivatives as ALX receptor agonists” (Actelion Pharmaceuticals, LTD., priority 2010, dated 2016):

What follows are compounds tested against recombinant human ALX receptor (HEK293-hALXR-Gα16 cells) (Homo sapiens (Human), UniProt P25090) (assay: Intracellular calcium measurements (FLIPR), ALX receptor agonistic activity). Details: normalized to 10 nM WKYMVm, read-out: EC50 (agonistic activity with respect to the ALX receptor).
Type: cell-based
Description: The ALX receptor agonistic activity of the compounds of formula (I) is determined in accordance with the following experimental method.
Intracellular Calcium Measurements:
Cells expressing recombinant human ALX receptor and the G-protein Gα16 (HEK293-hALXR-Gα16) were grown to 80% confluency in Growing Medium (GM). Cells were detached from culture dishes with a cell dissociation buffer (Invitrogen, 13151-014), and collected by centrifugation at 1,000 rpm at rt for 5 min in Assay Buffer (AB) (equal parts of Hank's BSS (Gibco, 14065-049) and DMEM without Phenol Red (Gibco, 11880-028)). After 60 min incubation at 37° C. under 5% CO2 in AB supplemented with 1 μM Fluo-4 (AM) (Invitrogen, F14202) and 20 mM HEPES (Gibco, 15630-056), the cells were washed and resuspended in AB. They were then seeded onto 384-well FLIPR assay plates (Greiner, 781091) at 50,000 cells in 70 μl per well and sedimented by centrifugation at 1,000 rpm for 1 min. Stock solutions of test compounds were made up at a concentration of 10 mM in DMSO, and serially diluted in AB to concentrations required for activation dose response curves. WKYMVm (Phoenix Peptides) was used as a reference agonist. A FLIPR Tetra instrument (Molecular Devices) was operated according to the manufacturers standard instructions, adding 4 μl of test compound dissolved at 10 mM in DMSO and diluted prior to the experiment in assay buffer to obtain the desired final concentration. Changes in fluorescence were monitored before and after the addition of test compounds at lex=488 nm and lem=540 nm. Emission peak values above base level after compounds addition were exported after base line subtraction. Values were normalized to high-level control (WKYMVm compound, 10 nM final concentration) after subtraction of the base line value (AB addition).

Chain of recombinant human ALX receptor (HEK293-hALXR-Gα16 cells) (P25090 whole entry): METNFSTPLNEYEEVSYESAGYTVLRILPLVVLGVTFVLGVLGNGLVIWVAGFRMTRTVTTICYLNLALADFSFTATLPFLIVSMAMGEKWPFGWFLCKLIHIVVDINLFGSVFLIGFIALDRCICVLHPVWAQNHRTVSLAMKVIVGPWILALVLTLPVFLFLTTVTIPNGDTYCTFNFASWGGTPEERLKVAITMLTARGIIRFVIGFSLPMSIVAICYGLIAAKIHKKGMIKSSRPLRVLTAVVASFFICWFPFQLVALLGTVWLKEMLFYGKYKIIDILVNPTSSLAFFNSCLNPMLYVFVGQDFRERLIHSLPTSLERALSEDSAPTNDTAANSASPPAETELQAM

EC50	SMILES
0.0103 µM	Cc1nc(C(=O)Nc2cnn(Cc3nc(C(C)(C)O)co3)n2)c(-c2ccccc2)o1 [Example 10, 2-Methyl-5-phenyl-oxazole-4-carboxylic acid {2-[4-(1-hydroxy-1-methyl-ethyl)-oxazol-2-ylmethyl]-2H-[1,2,3]triazol-4-yl}-amide]
0.0823 µM	CC(C)(O)c1coc(Cn2ncc(NC(=O)c3ncsc3-c3cccc(F)c3)n2)n1 [Example 11, 5-(3-Fluoro-phenyl)-thiazole-4-carboxylic acid {2-[4-(1-hydroxy-1-methyl-ethyl)-oxazol-2-ylmethyl]-2H-[1,2,3]triazol-4-yl}-amide]
0.0323 µM	Cc1nc(C(=O)Nc2cnn(Cc3nc(C(C)(C)O)co3)n2)c(-c2cccc(OC(F)(F)F)c2)o1 [Example 12, 2-Methyl-5-(3-trifluoromethoxy-phenyl)-oxazole-4-carboxylic acid {2-[4-(1-hydroxy-1-methyl-ethyl)-oxazol-2-ylmethyl]-2H-[1,2,3]triazol-4-yl}-amide]
0.0132 µM	Cc1nc(C(=O)Nc2cnn(Cc3nc(C(C)(C)O)co3)n2)c(-c2cccc(F)c2)o1 [Example 13, 5-(3-Fluoro-phenyl)-2-methyl-oxazole-4-carboxylic acid {2-[4-(1-hydroxy-1-methyl-ethyl)-oxazol-2-ylmethyl]-2H-[1,2,3]triazol-4-yl}-amide]
0.0113 µM	Cc1cccc(-c2ocnc2C(=O)Nc2cnn(Cc3nc(C(C)(C)O)co3)n2)c1 [Example 14, 5-m-Tolyl-oxazole-4-carboxylic acid {2-[4-(1-hydroxy-1-methyl-ethyl)-oxazol-2-ylmethyl]-2H-[1,2,3]triazol-4-yl}-amide]
0.0529 µM	Cc1cccc(-c2oc(C3CC3)nc2C(=O)Nc2cnn(Cc3nc(C(C)(C)O)co3)n2)c1 [Example 15, 2-Cyclopropyl-5-m-tolyl-oxazole-4-carboxylic acid {2-[4-(1-hydroxy-1-methyl-ethyl)-oxazol-2-ylmethyl]-2H-[1,2,3]triazol-4-yl}-amide]
0.245 µM	Cc1cccc(-c2oc(C)nc2C(=O)Nc2cnn(Cc3nc(C(C)(C)O)cs3)n2)c1 [N-(2-((4-(2-Hydroxypropan-2-yl)thiazol-2-yl)methyl)-2H-1,2,3-triazol-4-yl)-2-methyl-5-(m-tolyl)oxazole-4-carboxamide, reference compound]

Continued, compound first:

SMILES	EC50
Cc1cccc(-c2oc(C)nc2C(=O)Nc2cnn(Cc3nc(C(C)(C)O)co3)n2)c1 [Example 1, 2-Methyl-5-m-tolyl-oxazole-4-carboxylic acid {2-[4-(1-hydroxy-1-methyl-ethyl)-oxazol-2-ylmethyl]-2H-[1,2,3]triazol-4-yl}-amide]	0.0118 µM
Cc1cccc(-c2oc(C)nc2C(=O)Nc2cnn(Cc3nc(C4(O)CC4)co3)n2)c1 [Example 2, 2-Methyl-5-m-tolyl-oxazole-4-carboxylic acid {2-[4-(1-hydroxy-cyclopropyl)-oxazol-2-ylmethyl]-2H-[1,2,3]triazol-4-yl}-amide]	0.0076 µM
CC(C)(O)c1coc(Cn2ncc(NC(=O)c3ncoc3-c3ccccc3)n2)n1 [Example 3, 5-Phenyl-oxazole-4-carboxylic acid {2-[4-(1-hydroxy-1-methyl-ethyl)-oxazol-2-ylmethyl]-2H-[1,2,3]triazol-4-yl}-amide]	0.008 µM
CC(C)(O)c1coc(Cn2ncc(NC(=O)c3ncoc3-c3ccc(F)cc3)n2)n1 [Example 4, 5-(4-Fluoro-phenyl)-oxazole-4-carboxylic acid {2-[4-(1-hydroxy-1-methyl-ethyl)-oxazol-2-ylmethyl]-2H-[1,2,3]triazol-4-yl}-amide]	0.051 µM
Cc1nc(C(=O)Nc2cnn(Cc3nc(C(C)(C)O)co3)n2)c(-c2cccc(C(F)(F)F)c2)o1 [Example 5, 2-Methyl-5-(3-trifluoromethyl-phenyl)-oxazole-4-carboxylic acid {2-[4-(1-hydroxy-1-methyl-ethyl)-oxazol-2-ylmethyl]-2H-[1,2,3]triazol-4-yl}-amide]	0.0217 µM
COc1cccc(-c2oc(C)nc2C(=O)Nc2cnn(Cc3nc(C(C)(C)O)co3)n2)c1 [Example 6, 5-(3-Methoxy-phenyl)-2-methyl-oxazole-4-carboxylic acid {2-[4-(1-hydroxy-1-methyl-ethyl)-oxazol-2-ylmethyl]-2H-[1,2,3]triazol-4-yl}-amide]	0.0127 µM
Cc1nc(C(=O)Nc2cnn(Cc3nc(C(C)(C)O)co3)n2)c(-c2cccc(Cl)c2)o1 [Example 7, 5-(3-Chloro-phenyl)-2-methyl-oxazole-4-carboxylic acid {2-[4-(1-hydroxy-1-methyl-ethyl)-oxazol-2-ylmethyl]-2H-[1,2,3]triazol-4-yl}-amide]	0.0101 µM
CC(C)(O)c1coc(Cn2ncc(NC(=O)c3ncoc3-c3cccc(Cl)c3)n2)n1 [Example 8, 5-(3-Chloro-phenyl)-oxazole-4-carboxylic acid {2-[4-(1-hydroxy-1-methyl-ethyl)-oxazol-2-ylmethyl]-2H-[1,2,3]triazol-4-yl}-amide]	0.0178 µM
COc1cccc(-c2ocnc2C(=O)Nc2cnn(Cc3nc(C(C)(C)O)co3)n2)c1 [Example 9, 5-(3-Methoxy-phenyl)-oxazole-4-carboxylic acid {2-[4-(1-hydroxy-1-methyl-ethyl)-oxazol-2-ylmethyl]-2H-[1,2,3]triazol-4-yl}-amide]	0.0172 µM
